Counter-ions that a name gives are not always drawn.

For orientation: IC50 means the point on the concentration scale where inhibition reaches its midpoint. A low value points to inhibition by little substance.

Chain of mGluR5 receptor (I3LUI7 19-1212): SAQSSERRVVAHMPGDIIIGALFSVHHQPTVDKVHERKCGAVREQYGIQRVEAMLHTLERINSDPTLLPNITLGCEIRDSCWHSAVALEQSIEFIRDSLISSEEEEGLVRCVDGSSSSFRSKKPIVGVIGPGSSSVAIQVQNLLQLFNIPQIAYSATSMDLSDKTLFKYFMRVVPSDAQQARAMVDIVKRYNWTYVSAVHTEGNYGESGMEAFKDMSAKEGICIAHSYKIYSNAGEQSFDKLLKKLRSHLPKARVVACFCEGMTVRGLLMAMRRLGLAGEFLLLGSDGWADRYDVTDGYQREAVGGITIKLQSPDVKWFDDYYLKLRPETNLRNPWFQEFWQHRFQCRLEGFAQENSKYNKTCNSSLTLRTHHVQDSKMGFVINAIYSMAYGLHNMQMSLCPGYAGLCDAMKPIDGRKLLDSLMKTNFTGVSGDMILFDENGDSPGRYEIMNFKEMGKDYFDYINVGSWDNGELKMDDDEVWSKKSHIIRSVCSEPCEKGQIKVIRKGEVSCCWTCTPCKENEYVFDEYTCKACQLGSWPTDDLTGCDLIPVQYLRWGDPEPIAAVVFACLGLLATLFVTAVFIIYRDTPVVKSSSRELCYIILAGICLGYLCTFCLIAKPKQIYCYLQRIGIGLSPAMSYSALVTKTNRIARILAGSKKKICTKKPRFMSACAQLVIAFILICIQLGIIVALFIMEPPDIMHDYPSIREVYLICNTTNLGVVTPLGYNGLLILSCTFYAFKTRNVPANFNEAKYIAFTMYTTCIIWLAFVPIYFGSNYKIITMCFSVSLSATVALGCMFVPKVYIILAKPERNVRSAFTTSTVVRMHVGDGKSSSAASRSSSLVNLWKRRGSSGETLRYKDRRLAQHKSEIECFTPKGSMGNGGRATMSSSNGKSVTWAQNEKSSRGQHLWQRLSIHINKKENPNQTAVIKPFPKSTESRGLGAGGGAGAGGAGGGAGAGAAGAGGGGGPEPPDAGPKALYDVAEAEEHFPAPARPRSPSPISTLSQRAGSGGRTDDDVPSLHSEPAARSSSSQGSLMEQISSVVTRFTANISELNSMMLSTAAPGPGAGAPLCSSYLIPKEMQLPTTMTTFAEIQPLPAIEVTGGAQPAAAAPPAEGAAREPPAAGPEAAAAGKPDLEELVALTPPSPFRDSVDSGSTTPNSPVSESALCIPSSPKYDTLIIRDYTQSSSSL

The first test addresses mGluR5 receptor (Sus scrofa, UniProt I3LUI7). The test is described as follows: Affinity for the mGluR5 receptor: inhibition of 3[H]-MPEP binding in pig brain homogenate. Particulars: 10 μM compound, 5 nM 3[H]-MPEP, read-out: mGluR5 receptor inhibition of ^3[H]-MPEP binding [10 μM] in % at a concentration of the example compounds of 10 μM. Put shortly:
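Pig brain membranes (450 μg protein; hemispheres without medulla, cerebellum and pons) in 30 mM Hepes pH 8.0 were incubated 60 min at room temperature with 5 nM [3H]-MPEP and compound at 10 μM. Bound radioactivity was filtered and counted. Nonspecific binding was defined with 10 μM MPEP.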
Turning to `Cc1cccc(C#Cc2cccc(-c3nc4cnccn4c3Nc3ccc(F)cc3)c2)n1` [Example 252, N-(4-fluorophenyl)-2-(3-((6-methylpyridin-2-yl)ethynyl)phenyl)imidazo[1,2-a]pyrazin-3-amine], the inhibition at 10 µM was 86%.
Same read-out and setting: with `Cc1cccn2c(NC3CCCCC3)c(-c3ccc(C#Cc4ccccc4)nc3)nc12` [Example 280, N-cyclohexyl-8-methyl-2-(6-(phenylethynyl)pyridin-3-yl)imidazo[1,2-a]pyridin-3-amine] the figure was 31%; with `Cc1ccn2c(NC(C)c3ccccc3)c(-c3ccc(C#Cc4ccccc4)s3)nc2c1` (stereo not drawn) [Example 28, [7-methyl-2-(5-phenylethynyl-thiophen-2-yl)-imidazo[1,2-a]pyridin-3-yl]-(1-phenyl-ethyl)-amine], 98%.
Take `COc1cccc(CNc2c(-c3ccc(C#Cc4ccccc4)s3)nc3cnccn23)c1` [Example 26, (3-methoxy-benzyl)-[2-(5-phenylethynyl-thiophen-2-yl)-imidazo[1,2-a]pyrazin-3-yl]-amine]: the inhibition at 10 µM is 97%.
Turning to `C(#Cc1ccc(-c2nc3ncccn3c2NC2CCCC2)o1)c1ccccn1` [Example 257, N-cyclopentyl-2-(5-(pyridin-2-ylethynyl)furan-2-yl)imidazo[1,2-a]pyrimidin-3-amine], the inhibition at 10 µM was 77%.
On the same count and under the same terms, the same measure for `Cc1ccn2c(Nc3ccc(F)cc3)c(-c3ccc(C#Cc4ccccn4)o3)nc2c1` [Example 279, N-(4-fluorophenyl)-7-methyl-2-(5-(pyridin-2-ylethynyl)furan-2-yl)imidazo[1,2-a]pyridin-3-amine]: 67%.
On to `Cc1cc(C)n2c(NCc3ccc(F)cc3)c(-c3ccc(C#Cc4ccccc4)s3)nc2c1` [Example 52, [5,7-dimethyl-2-(5-phenylethynyl-thiophen-2-yl)-imidazo[1,2-a]pyridin-3-yl]-(4-fluoro-benzyl)-amine], for which the inhibition at 10 µM is 75%.
Still for that read-out and setting: the same measure for `Cc1cccc2nc(-c3ccc(C#Cc4ccccc4)s3)c(NCC3CCCCC3)n12` [Example 2, cyclohexylmethyl-[5-methyl-2-(5-phenylethynyl-thiophen-2-yl)-imidazo[1,2-a]pyridin-3-yl]-amine]: 95%; for `Cc1ccn2c(NC(C)c3ccccc3)c(-c3ccc(C#Cc4ccccc4)s3)nc2n1` (stereo not drawn) [Example 36, [7-methyl-2-(5-phenylethynyl-thiophen-2-yl)-imidazo[1,2-a]pyrimidin-3-yl]-(1-phenyl-ethyl)-amine]: 100%; for `Cc1cc(Br)c2nc(-c3cc(C#Cc4ccccc4)cs3)c(NCc3ccc(Cl)cc3)n2c1` [Example 232, 8-bromo-N-(4-chlorobenzyl)-6-methyl-2-(4-(phenylethynyl)thiophen-2-yl)imidazo[1,2-a]pyridin-3-amine]: 75%.
As to `Cc1ccc2nc(-c3ccc(C#Cc4ccccn4)s3)c(NC(C)(C)C)n2c1` [Example 268, N-tert-butyl-6-methyl-2-(5-(pyridin-2-ylethynyl)thiophen-2-yl)imidazo[1,2-a]pyridin-3-amine], the inhibition at 10 µM came to 75%.
Still for that read-out and setting: with `CC(C)(C)Nc1c(-c2cccc(C#Cc3ccccn3)c2)nc2ccccn12` [Example 261, N-tert-butyl-2-(3-(pyridin-2-ylethynyl)phenyl)imidazo[1,2-a]pyridin-3-amine] the figure was 79%.
With `Cc1ccc2nc(-c3ccc(C#Cc4ccccn4)s3)c(NC3CCCC3)n2c1` [Example 267, N-cyclopentyl-6-methyl-2-(5-(pyridin-2-ylethynyl)thiophen-2-yl)imidazo[1,2-a]pyridin-3-amine], the inhibition at 10 µM came out at 85%.
On to `C(#Cc1csc(-c2nc3c(OCc4ccccc4)cccn3c2NC2CCCC2)c1)c1ccccc1` [Example 219, 8-(benzyloxy)-N-cyclopentyl-2-(4-(phenylethynyl)thiophen-2-yl)imidazo[1,2-a]pyridin-3-amine], for which the inhibition at 10 µM was 33%.
The same measure, in the same setting: with `CCCC(C)(C)Nc1c(-c2cc(C#Cc3ccccc3)cs2)nc2cnccn12` [Example 214, N-(2-methylpentan-2-yl)-2-(4-(phenylethynyl)thiophen-2-yl)imidazo[1,2-a]pyrazin-3-amine] the figure was 77%; with `Cc1cccc(C#Cc2cccc(-c3nc4ccc(Cl)cn4c3NC3CCCC3)c2)n1` [Example 319, 6-chloro-N-cyclopentyl-2-(3-((6-methylpyridin-2-yl)ethynyl)phenyl)imidazo[1,2-a]pyridin-3-amine], 81%.
Still for that read-out and setting: the same measure for `Cc1cc(Br)c2nc(-c3ccc(C#Cc4ccccn4)s3)c(NC3CCCC3)n2c1` [Example 92, 8-bromo-N-cyclopentyl-6-methyl-2-(5-(pyridin-2-ylethynyl)thiophen-2-yl)imidazo[1,2-a]pyridin-3-amine]: 82%; for `COc1ccccc1CNc1c(-c2ccc(C#Cc3ccccc3)s2)nc2ccccn12` [Example 38, (2-methoxy-benzyl)-[2-(5-phenylethynyl-thiophen-2-yl)-imidazo[1,2-a]pyridin-3-yl]-amine]: 87%; for `Fc1ccc(Nc2c(-c3cccc(C#Cc4ccccn4)c3)nc3ccccn23)cc1` [Example 263, N-(4-fluorophenyl)-2-(3-(pyridin-2-ylethynyl)phenyl)imidazo[1,2-a]pyridin-3-amine]: 85%.
Still for that read-out and setting: with `COc1cccc(CNc2c(-c3ccc(C#Cc4ccccc4)s3)nc3cccc(C)n23)c1` [Example 21, (3-methoxy-benzyl)-[5-methyl-2-(5-phenylethynyl-thiophen-2-yl)-imidazo[1,2-a]pyridin-3-yl]-amine] the figure was 91%; with `Clc1ccc(CNc2c(-c3ccc(C#Cc4ccccc4)s3)nc3ccccn23)cc1` [Example 204, N-(4-chlorobenzyl)-2-(5-(phenylethynyl)thiophen-2-yl)imidazo[1,2-a]pyridin-3-amine], 30%.

The same test, now with this note: 3[H]-MPEP binding.
In turn, `CC(C)(C)CC(C)(C)Nc1c(-c2ccc(C#Cc3ccccc3)s2)nc2ncccn12` [Example 85, 2-(5-(phenylethynyl)thiophen-2-yl)-N-(2,4,4-trimethylpentan-2-yl)imidazo[1,2-a]pyrimidin-3-amine] had an IC50 of 2.01 µM.
In turn, `CC(C)(C)Nc1c(-c2ccc(C#Cc3ccncc3)s2)nc2cnccn12` [Example 76, tert-butyl-[2-(5-pyridin-4-ylethynyl-thiophen-2-yl)-imidazo[1,2-a]pyrazin-3-yl]-amine] came in with an IC50 of 0.0037 µM.
On the same count and under the same terms, with `CC(C)(C)Nc1c(-c2ccc(C#Cc3cccs3)s2)nc2ccccn12` [Example 343, N-tert-butyl-2-(5-(thiophen-2-ylethynyl)thiophen-2-yl)imidazo[1,2-a]pyridin-3-amine hydrochloride] the figure was 0.093 µM.
Still for that read-out and setting: with `CN(C)c1c(-c2ccc(C#Cc3ccccc3)s2)nc2cnccn12` [Example 65, dimethyl-[2-(5-phenylethynyl-thiophen-2-yl)-imidazo[1,2-a]pyrazin-3-yl]-amine] the figure was 3.84 µM; with `CC(C)(C)Nc1c(-c2ccc(C#Cc3ccc(F)c(C#N)c3)s2)nc2ccccn12` [Example 344, 5-((5-(3-(tert-butylamino)imidazo[1,2-a]pyridin-2-yl)thiophen-2-yl)ethynyl)-2-fluorobenzonitrile hydrochloride], 0.17 µM.
Consider `CSc1cccc(C#Cc2ccc(-c3nc4cnccn4c3NC(C)(C)C)s2)c1` [Example 173, N-tert-butyl-2-(5-((3-(methylthio)phenyl)ethynyl)thiophen-2-yl)imidazo[1,2-a]pyrazin-3-amine], for which the IC50 amounted to 0.8 µM.
The same measure, in the same setting: with `CC(C)(C)Nc1c(-c2ccc(C#Cc3ccccc3)s2)nc2cnccn12` [Example 18, tert-butyl-[2-(5-phenylethynyl-thiophen-2-yl)-imidazo[1,2-a]pyrazin-3-yl]-amine] the figure was 0.064 µM; with `C(#Cc1ccc(-c2nc3cnccn3c2N2CCCC2)s1)c1ccccc1` [Example 99, 2-(5-(phenylethynyl)thiophen-2-yl)-3-(pyrrolidin-1-yl)imidazo[1,2-a]pyrazine hydrochloride], 0.54 µM.
On the same count and under the same terms, the same measure for `CC(C)(C)Nc1c(-c2ccc(C#Cc3ccc(O)cc3)s2)nc2cnccn12` [Example 121, 4-((5-(3-(tert-butylamino)imidazo[1,2-a]pyrazin-2-yl)thiophen-2-yl)ethynyl)phenol hydrochloride]: 2.54 µM; for `CC(C)(C)Nc1c(-c2ccc(C#Cc3cncc(C#N)c3)s2)nc2cnccn12` [Example 172, 5-((5-(3-(tert-butylamino)imidazo[1,2-a]pyrazin-2-yl)thiophen-2-yl)ethynyl)nicotinonitrile hydrochloride]: 0.036 µM.
Same read-out and setting: with `Cc1ccc(C#Cc2ccc(-c3nc4cnccn4c3NC(C)(C)C)s2)cc1` [Example 161, N-tert-butyl-2-(5-(p-tolylethynyl)thiophen-2-yl)imidazo[1,2-a]pyrazin-3-amine] the figure was 7.74 µM; with `CC(C)(C)Nc1c(-c2ccc(C#Cc3ncc(F)cc3F)s2)nc2cnccn12` [Example 175, N-tert-butyl-2-(5-((3,5-difluoropyridin-2-yl)ethynyl)thiophen-2-yl)imidazo[1,2-a]pyrazin-3-amine], 0.051 µM; with `CC(C)(C)CC(C)(C)Nc1c(-c2ccc(C#Cc3ccccn3)s2)nc2cnccn12` [Example 64, [2-(5-pyridin-2-ylethynyl-thiophen-2-yl)-imidazo[1,2-a]pyrazin-3-yl]-(1,1,3,3-tetramethyl-butyl)-amine], 0.033 µM.
`CC(C)(C)Nc1c(-c2ccc(C#Cc3ccccn3)s2)nc2ncccn12` [Example 141, N-tert-butyl-2-(5-(pyridin-2-ylethynyl)thiophen-2-yl)imidazo[1,2-a]pyrimidin-3-amine] had a half-inhibitory concentration (IC50) of 0.0028 µM.
Take `CC(C)(C)Nc1c(-c2ccc(C#Cc3cccc(N)c3)s2)nc2ccccn12` [Example 347, 2-(5-((3-aminophenyl)ethynyl)thiophen-2-yl)-N-tert-butylimidazo[1,2-a]pyridin-3-amine hydrochloride]: the concentration for half-maximal inhibition (IC50) stood at 0.92 µM.

Source of the values: patent publication US7420056B2, “Substituted bicyclic imidazo-3-ylamine compounds” (Gruenenthal GmbH, priority 2004, dated 2008).
